Reference: publication PMC12926040, “ADP-ribose is a competitive inhibitor of methanol dehydrogenases from Bacillus methanolicus” (The Journal of Biological Chemistry, 2025)

B1: ACT: activator protein ACT, Nudix hydrolase from B. methanolicus MGA3 with ADPRase activity (protein)
chain: MGKLFEEKTIKTEQIFSGRVVKLQVDDVELPNGQTSKREIVRHPGAVAVIAITNENKIVMVEQYRKPLEKSIVEIPAGKLEKGEDPRVTALRELEEETGYECEQMEWLISFATSPGFADEIIHLYVAKGLSKKENAAGLDEDEFVDLIELTLDEALQYIKEKRIYDSKTVIAVQYLQLQEALK
modifications: left off: His tag (from the vector pET21a(+) and the Ni-affinity column), end not stated, state not stated

How the values were obtained:
[1] = target: T1, CbFDH (Candida boidinii, UniProt O13437); assay: Inhibition effect of ADPR on type II alcohol dehydrogenases; type: biochemical; conditions: 0.5 mM ADPR, 0.5 mM NAD+
T1 construct: made in house; cell-free extract
T1 sequence (O13437 1-364): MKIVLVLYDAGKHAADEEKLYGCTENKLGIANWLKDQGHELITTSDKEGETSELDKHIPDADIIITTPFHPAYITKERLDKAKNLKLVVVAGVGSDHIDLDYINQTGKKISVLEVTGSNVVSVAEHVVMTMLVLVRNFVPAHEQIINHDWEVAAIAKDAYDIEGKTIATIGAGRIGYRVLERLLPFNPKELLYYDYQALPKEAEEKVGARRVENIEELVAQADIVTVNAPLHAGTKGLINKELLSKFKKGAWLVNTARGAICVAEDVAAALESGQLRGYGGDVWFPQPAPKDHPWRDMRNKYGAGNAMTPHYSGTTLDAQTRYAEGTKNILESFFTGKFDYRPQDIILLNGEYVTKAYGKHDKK

[2] = target: ACT (Bacillus methanolicus, UniProt Q8KP10, K162Q/L124I/V88I); conditions: read-out: KM of ACT for ADPR; Tris-HCl pH 8.0, 5 mM MgCl2, 25 °C
Experimental: The reaction was terminated by adding 10 μl of 3 M H2SO4 after incubation at 25 ° C for 5 min, followed by analysis using HPLC. The kcat and KM values were determined by fitting the initial velocity versus substrate concentration data to the Michaelis-Menten equation using GraphPad Prism.
Reactions were terminated by adding 10 μL of 3 M H2SO4 after incubation at 25 °C for 5 minutes. Data are means ± SDs of three measurements.

[3] = target: T2, BmMDH2 (Bacillus methanolicus, UniProt I3E949); assay: Isothermal titration calorimetry (ITC) of ADPR binding; parameters: species or system Bacillus methanolicus MGA3; conditions: metal-free BmMDH2
[4] = target: T2, BmMDH2; assay: Kinetic assay of MDHs, ethanol dehydrogenation, NAD+ varied; type: biochemical, Bacillus methanolicus MGA3; conditions: 1.0 μM ADPR
[5] = target: T3, ADH from Saccharomyces cerevisiae (ScADH) (Saccharomyces cerevisiae, UniProt P00330); assay: Inhibition effect of ADPR on type I alcohol dehydrogenase; type: biochemical; conditions: 0.5 mM ADPR, 0.5 mM NAD+
T3 construct: purchased TCI A0200
T3 sequence (P00330 1-348): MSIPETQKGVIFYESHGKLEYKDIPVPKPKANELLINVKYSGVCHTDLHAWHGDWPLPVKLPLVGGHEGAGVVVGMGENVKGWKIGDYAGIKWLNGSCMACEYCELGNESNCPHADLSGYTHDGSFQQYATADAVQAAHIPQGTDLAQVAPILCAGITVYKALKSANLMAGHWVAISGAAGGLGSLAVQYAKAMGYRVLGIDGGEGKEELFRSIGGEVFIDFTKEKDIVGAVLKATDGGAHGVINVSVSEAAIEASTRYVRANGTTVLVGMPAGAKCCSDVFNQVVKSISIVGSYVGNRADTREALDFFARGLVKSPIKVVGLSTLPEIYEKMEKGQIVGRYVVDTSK

[6] = test system: BaAlaDH; assay: Inhibition effect of ADPR on type II alcohol dehydrogenases; type: biochemical, Bacillaceae; conditions: 0.5 mM ADPR, 0.5 mM NAD+
[7] = target: T4, glucose dehydrogenase (BmGDH) (Priestia megaterium, UniProt P40288); assay: as above; type: biochemical, Bacillus megaterium IWG3; conditions: 0.5 mM ADPR, 0.5 mM NAD+
T4 construct: made in house; cell-free extract

[8] = test system: isopropanol dehydrogenase (IPADHM4); type: biochemical, Brucella suis
[9] = target: T2, BmMDH2; assay: Effects of NAM, AMP and ADPR (0.3 mM each) on BmMDH2 activity; type: biochemical, Bacillus methanolicus MGA3; conditions: 3 mM NAD+, 40 mM ethanol
[10] = target: T2, BmMDH2; assay: BmMDH2 activation by ACT, NADH formation monitored at 340 nm; type: biochemical; conditions: 100 nM BmMDH2, 3 mM NAD+, pH 9.5
Experimental: Figure 1 ACT-catalyzed conversion of NAD^+ into a compound that activates BmMDH2.A, effect of ACT concentration on BmMDH2 activation. The formation of NADH was monitored at 340 nm, with 100 nM BmMDH2 in glycine-NaOH buffer (pH 9.5) containing 0 to 125 nM ACT, 3 mM NAD^+, 20 mM ethanol, 5 mM MgCl2 and 0.5 mM MnCl2. Data for the initial 10 min are highlighted in the right panel. Data were from a single experiment. B, effects of the following treatments on BmMDH2 activation: preincubated ACT & NAD^+ (red), preincubated ACT & BmMDH2 (blue), ultrafiltrate of preincubated ACT & NAD^+ (green), and ultrafiltrate of ACT (purple) or NAD^+ (cyan) solutions. Preincubations were performed in glycine-NaOH buffer (pH 9.5) with 5 mM MgCl2 and 0.5 mM MnCl2 at 25 °C for 30 min. Ethanol, BmMDH2, or NAD^+ was subsequently added to achieve final concentrations of 10 nM ACT, 20 mM ethanol, 3 mM NAD^+, and 200 nM BmMDH2. For ultrafiltration, preincubated samples were filtered (10 kDa cutoff, Millipore), and the flowthrough was used for activation assays. Data represent means ± SD (n = 3). C, effect of NAD^+ concentration on BmMDH2 activation. Activity was measured using 100 nM BmMDH2 in glycine-NaOH buffer (pH 9.5) with 50 nM ACT, 0 to 20 mM NAD^+, 5 mM MgCl2, and 0.5 mM MnCl2. Data were from a single experiment. D, time-course of BmMDH2 activation. Reaction were performed in 200 μl glycine-NaOH buffer (100 mM, pH 9.5) with 5 mM MgCl2, 0.5 mM MnCl2, 0.25 mM NAD^+, 0.1 μM BmMDH2, 20 mM ethanol, and 50 nM ACT. Fresh NAD^+ (4 μl, 150 mM) was added twice during the reaction. Data were from a single experiment. E, catalytic rates of BmMDH2 were calculated from the slopes of the data in panel D. Additional replicates of the experiments shown in panels A, C, and D are provided in Fig. S4. […]
The catalytic processes of MDHs were monitored by measuring NADH absorbance at 340 nm using a Tecan SPARK UV-Vis plate reader (Tecan Austria GmbH) at 25 °C. […]

[11] = Specific activity of ACT and its mutants for the hydrolysis of ADPR; type: biochemical
Experimental: After a 5-minute incubation at 25°C, the reaction was terminated by the addition of 10 μL of 3 M H₂SO₄. The products were subsequently analyzed by HPLC.

[12] = test system: BmMDH1; conditions: ref [14], [15]; cited from earlier work

T2 sequence (I3E949 entry or part of it): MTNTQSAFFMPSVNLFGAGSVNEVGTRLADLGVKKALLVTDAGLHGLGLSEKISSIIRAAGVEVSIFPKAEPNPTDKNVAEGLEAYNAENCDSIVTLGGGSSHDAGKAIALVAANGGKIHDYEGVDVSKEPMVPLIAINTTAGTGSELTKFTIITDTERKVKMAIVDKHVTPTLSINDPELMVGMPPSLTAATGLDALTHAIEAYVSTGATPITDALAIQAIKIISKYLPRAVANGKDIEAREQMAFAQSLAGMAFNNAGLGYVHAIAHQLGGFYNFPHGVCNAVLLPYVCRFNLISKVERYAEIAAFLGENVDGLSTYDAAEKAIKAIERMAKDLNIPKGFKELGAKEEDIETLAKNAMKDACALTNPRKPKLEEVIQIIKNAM
T4 sequence (P40288 whole entry): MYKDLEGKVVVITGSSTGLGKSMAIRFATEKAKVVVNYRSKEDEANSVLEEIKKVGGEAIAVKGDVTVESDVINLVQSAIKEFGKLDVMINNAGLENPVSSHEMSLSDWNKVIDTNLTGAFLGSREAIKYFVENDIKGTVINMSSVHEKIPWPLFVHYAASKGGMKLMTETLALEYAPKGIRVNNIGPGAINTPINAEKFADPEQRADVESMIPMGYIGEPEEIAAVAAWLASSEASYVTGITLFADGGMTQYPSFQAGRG

Molecule | inhibition by ADPR [1] | Km [2] [µM] | binding to EDTA-treated BmMDH2 [3] | effect on kinetics of ethanol dehydrogenation [4] | inhibition by ADPR [5] | inhibition by ADPR [6] | inhibition by ADPR [7] | inhibition by ADPR [8] | inhibition of BmMDH2 activity [9] [%] | time to full activation of BmMDH2 ([10]; 31.3 nM ACT) [min] | ACT concentration that triggered immediate BmMDH2 activation [10] [nM] | Specific activity (ADPRase) ([11]; pH 8.0, 400 μM ADPR, 5 mM MgCl2, 25 °C) [U/mg] | ADPRase activity ([11]; pH 9.5) [U/mg] | increase of BmMDH1 activity [12] [fold]
adenosine diphosphate ribose [ADPR] | None of these enzymes showed significant inhibition | 15.9 | no binding | decrease in kcat, while KM remained unchanged | None of these enzymes showed significant inhibition | None of these enzymes showed significant inhibition | None of these enzymes showed significant inhibition | None of these enzymes showed significant inhibition | 72 |  |  |  |  | 
B1 |  |  |  |  |  |  |  |  |  | ≤ 2.8 | > 62 | 61.2 ± 0.5 | 51.6 ± 0.4 | 40
